Results from patent EP1541559A1, “5-SUBSTITUTED ISOQUINOLINE DERIVATIVE” (Asahi Kasei Pharma Corporation, priority 2002, dated 2004).
Structures can show the parent of a compound that is named as a salt. Where two headings read alike, the source gives them in different places.

Experiments:
[1] = tested on: myosin regulatory light chain; assay: Action on amount of phosphorylated myosin regulatory light chain in the cells (Test Example 1); type: cell-based, human; settings: neutrophils of healthy volunteers, reaction with test compound at 25°C for 5 minutes, read-out: Inhibition of myosin regulatory light chain phosphorylation (IC50: µM)
Experimental: The neutrophils were washed with PBS(-) and resuspended in Hanks' Balanced Salt Solution (HBSS+, Gibco) to prepare a cell suspension (8 x 10^6/ml). The cell suspension was diluted to 5 x 10^6/ml, introduced into Eppendorf tubes in a volume of 0.4 ml each, then 0.1 ml each of solutions of a test compound at various concentrations were added to the suspension and allowed to react at 25°C for 5 minutes. After the reaction, 0.1 ml of trichloroacetic acid solution was added to each reaction, the reaction mixture was gently shaken and centrifuged at 12,000 rpm (4°C, 5 minutes), and the supernatant was removed. Subsequently, 3 μl of 1 M Tris solution was added to the residue, the mixture was further mixed with 50 μl of extraction buffer (8 M urea, 0.02% 2-mercaptoethanol, 0.002% bromophenol blue) and left stand at room temperature for 1 hour. Then, the reaction mixture was loaded on a spin column (0.45 μm, Millipore) to remove the insoluble solids and a sample buffer for SDS polyacrylamide gel electrophoresis (25 mM, Tris-HCl pH 6.8, 2.5% 2-mercaptoethanol, 2% sodium dodecylsulfate, 5% sucrose, 0.002% bromophenol blue as final concentrations) was added, and 10 μl of each sample was subjected to electrophoresis. […] J. Physiol., 274, […]-[…] (1998)), which specifically recognize the phosphorylated myosin regulatory light chain, and donkey anti-mouse IgG (Chemicon) conjugated with horseradish peroxidase (HRP-labeled). The band of the phosphorylated myosin regulatory light chain was detected on a film by using ECL Plus Kit (Amersham Pharmacia Biotech). This band was subjected to quantification using a densitometer. By using this value, the inhibitory ratio (%) for phosphorylation of the myosin regulatory light chain was calculated by using the following equation.

Neutrophils = assay: Neutrophil migration inhibitory action, Boyden Chamber, FMLP (Test Example 5); type: cell-based, human; settings: Homo sapiens, Neutrophil, 0.5 h, FMLP (1 µM), migration at 37°C for 30 minutes; read-out: Neutrophil migration inhibition IC50
Experimental: Neutrophils were isolated from 50 to 100 ml of peripheral blood collected from healthy donors by the method described in Test Example 1 to obtain a cell suspension (8 x 10^6/ml). Subsequently, solutions of a test compound at various concentrations were introduced into wells of a 96-well plate in a volume of 125 µl per well, the cell suspension of an equivalent volume was added to it and the plate was preincubated at room temperature for 5 minutes. During the preincubation, FMLP (1 µM, Sigma) solution was added to the lower chamber to set Boyden Chamber, the preincubated cell suspension was added to the upper chamber in a volume of 200 µl per well, and the cells were allowed to migrate at 37°C under 5% carbon dioxide for 30 minutes. The filter after the migration was collected, and the non-migrated cells adhered to the surface that faced the upper chamber were carefully wiped off. Then, the migrated cells on the back surface were stained with DifQuick dye solution (International Reagents), washed with water and dried, and then absorbance was measured at 595 nm. The inhibition ratio against migration (%) of a test compound was calculated by using the following equation: Migration inhibition ratio (%) = (1 -Absorbance of the group with addition of test compound /Absorbance of the group without addition of test compound) x 100 [formula]

[2] = tested on: ovalbumin-immunized guinea pigs; assay: Respiratory tract constriction suppression action, ovalbumin-induced (Test Example 3); type: in vivo, Hartley guinea pigs; settings: result in words; test medicament given into hind leg vein after induction with 0.3 mg/kg ovalbumin, measured for 15 minutes
Experimental: Four-week old Hartley guinea pigs (male) were immunized by intraperitoneal administration of ovalbumin (Sigma, Grade V) in amounts of 1 mg for each animal on the day on which the experiment was started, 3 mg for each animal after 2 days, and 10 mg for each animal after 4 days. Twelve to fourteen days after the final immunization, the ovalbumin-immunized guinea pigs were anesthetized by intraperitoneal administration of about 40 mg/kg of pentobarbital (Somnopentyl), and the tracheas were taken out. Subsequently, a cannula (SP-110, Natsume) was inserted into each trachea, and one end of the cannula was connected to an artificial respirator (Model-b83, Harvard). The aeration conditions were set at 6 ml per kilogram and 60 times per 1 minute. Further, a cannula for medicament administration (JMS wing needle 23G 3/4) was inserted into a hind leg vein. Myoblock (Organon Technica) was administered in an amount of 0.5 mg/kg from the cannula inserted into the hind leg vein to stop the spontaneous breathing, and after 2 or 3 minutes, 0.3 mg/kg of ovalbumin was administered to induce constriction of respiratory tract. The increase of airway resistance value 2 minutes after the induction (measurement apparatuses: pressure transducer TR-603T, respiratory amplifier AR-601G, and recorder RTA-3100, Nihon Kohden Corp.) was confirmed to be above 80 cm H2O or higher, and then, a solution of a test medicament was administered from the cannula inserted into the hind leg vein, and the airway resistance value was continuously measured for 15 minutes after the administration to determine the effect.

Japanese white rabbit = assay: Intraocular pressure reducing action (Test Example 4); type: in vivo; settings: for intraocular pressure reducing activity: result in words
Experimental: A Japanese white rabbit having a body weight of about 2 kg was placed in a positioner and naturalized for one week before the experiment. An ophthalmologic local […] (Benoxil) was administered to the left eye, and then intraocular pressure was measured by using a tonometer (Classic 30, Solan). The initial value of the intraocular pressure was measured, then 50 μl of a test compound (1% aqueous solution) was dropped to the left eye, and after 2 hours, the intraocular pressure was measured. The intraocular pressure reducing action of the test compounds is shown in Table 7 mentioned below as ratios (%) of reduction of intraocular pressure based on the initial value of the intraocular pressure.

thoracic aorta = assay: Vasoconstriction inhibitory action on aorta rings constricted with phenylephrine (Test Example 2); parameters: species or system Rats (Wistar, 11-week old); settings: result in words; aorta constricted with phenylephrine (1 µM)
Excerpt: Rats (Wistar, 11-week old) were bleeded to death and laparotomized to take out the thoracic aorta.

[3] = Homo sapiens, Neutrophil, 5 min

## Cl.Nc1nccc2c(OCC3CCCNC3)cccc12 (stereo not shown) [Example 11, 3-[(1-Amino-5-isoquinolyl)oxy]methylpiperidine hydrochloride]
[1]; [3]
  IC50: 1 to 20 µM
Neutrophils
  IC50: 1 to 10 µM
[2]
  constriction of respiratory tract (airway resistance value): significantly improved the constriction of respiratory tract

## Brc1cncc2cccc(NC3CCNCC3)c12 [Example 103, 4-(4-Bromo-5-isoquinolyl)aminopiperidine hydrochloride]
[1]; [3]
  IC50: ≤ 40 µM
[1]; hydrochloride
  IC50: ≤ 20 µM
Japanese white rabbit; Oryctolagus cuniculus, topical, 50 µl of test compound (1% aqueous solution) dropped to the left eye, after 2 hours, read-out: Intraocular pressure reducing action (reduction ratio) (%)
  inhibition in vivo at 1 %: 31.3%
Neutrophils
  IC50: 1 to 10 µM

## CCc1cncc2cccc(NC3CCNCC3)c12.Cl [Example 113, 4-(4-Ethyl-5-isoquinolyl)aminopiperidine hydrochloride]
[1]; [3]
  IC50: ≤ 40 µM
[1]; hydrochloride
  IC50: ≤ 20 µM
Japanese white rabbit
  intraocular pressure reducing activity: significant intraocular pressure reducing activity
Thoracic aorta
  vasoconstriction inhibitory action: significant vasoconstriction inhibitory action
Neutrophils
  IC50: ≤ 40 µM

## Cl.Clc1cncc2cccc(NC3CCNCC3)c12 [Example 118, 4-(4-Chloro-5-isoquinolyl)aminopiperidine hydrochloride]
[1]; [3]
  IC50: ≤ 40 µM
[1]; hydrochloride
  IC50: ≤ 20 µM
[2]
  constriction of respiratory tract (airway resistance value): significantly improved the constriction of respiratory tract

## Cc1cncc2cccc(N[C@H]3CC[C@@H](N)CC3)c12.Cl [Example 120, Cis-N-(4-methyl-5-isoquinolyl)-1,4-cyclohexanediamine hydrochloride]
[1]; [3]
  IC50: ≤ 40 µM
[1]; hydrochloride
  IC50: ≤ 20 µM
Japanese white rabbit
  intraocular pressure reducing activity: significant intraocular pressure reducing activity
Thoracic aorta
  vasoconstriction inhibitory action: significant vasoconstriction inhibitory action

## Cc1cncc2cccc(N[C@H]3CC[C@H](N)CC3)c12.Cl [Example 121, Trans-N-(4-methyl-5-isoquinolyl)-1,4-cyclohexanediamine hydrochloride]
[1]; [3]
  IC50: ≤ 40 µM
[1]; hydrochloride
  IC50: ≤ 20 µM
Thoracic aorta
  vasoconstriction inhibitory action: significant vasoconstriction inhibitory action
Neutrophils
  IC50: 1 to 10 µM
[2]
  constriction of respiratory tract (airway resistance value): significantly improved the constriction of respiratory tract

## CS(=O)(=O)c1ccc(CCCN(CCCN)S(=O)(=O)c2cccc3cnccc23)cc1.Cl [Example 124, N-[(5-Isoquinolyl)sulfonyl]-N-[3-(4-methanesulfonyl)phenylpropyl]-1,3-propylenediamine hydrochloride]
[1]; hydrochloride
  IC50: ≤ 20 µM
Japanese white rabbit; 50 µl of test compound (1% aqueous solution) dropped to the left eye, after 2 hours
  Intraocular pressure reducing action (reduction ratio) (%): 12.5%

## Cl.N[C@H]1CC[C@H](Oc2cccc3cncc(Br)c23)CC1 [Example 133, Trans-4-[(4-bromo-5-isoquinolyl)oxy]cyclohexylamine hydrochloride]
[1]; [3]
  IC50: ≤ 40 µM
[1]; hydrochloride
  IC50: ≤ 20 µM
Japanese white rabbit
  intraocular pressure reducing activity: significant intraocular pressure reducing activity
[2]
  constriction of respiratory tract (airway resistance value): significantly improved the constriction of respiratory tract

## Cl.N#Cc1cncc2cccc(O[C@H]3CC[C@H](N)CC3)c12 [Example 134, Trans-4-[(4-cyano-5-isoquinolyl)oxy]cyclohexylamine hydrochloride]
[1]; [3]
  IC50: ≤ 40 µM
[1]; hydrochloride
  IC50: ≤ 20 µM
Japanese white rabbit
  intraocular pressure reducing activity: significant intraocular pressure reducing activity
Thoracic aorta
  vasoconstriction inhibitory action: significant vasoconstriction inhibitory action

## Cl.N[C@H]1CC[C@H](Oc2cccc3cnccc23)CC1 [Example 135, Trans-4-[(5-isoquinolyl)oxy]cyclohexylamine hydrochloride]
[1]; [3]
  IC50: ≤ 40 µM
[1]; hydrochloride
  IC50: ≤ 20 µM
Japanese white rabbit
  intraocular pressure reducing activity: significant intraocular pressure reducing activity

## C=Cc1cncc2cccc(O[C@H]3CC[C@H](N)CC3)c12.Cl [Example 136, Trans-4-[(4-vinyl-5-isoquinolyl)oxy]cyclohexylamine hydrochloride]
[1]; [3]
  IC50: ≤ 40 µM
[1]; hydrochloride
  IC50: ≤ 20 µM
Japanese white rabbit
  intraocular pressure reducing activity: significant intraocular pressure reducing activity
Thoracic aorta
  vasoconstriction inhibitory action: significant vasoconstriction inhibitory action
Neutrophils
  IC50: ≤ 40 µM

## Cc1cncc2cccc(OC3CCNCC3)c12.Cl [Example 139, 4-[(4-Methyl-5-isoquinolyl)oxy]piperidine hydrochloride]
[1]; [3]
  IC50: ≤ 40 µM
[1]; hydrochloride
  IC50: ≤ 20 µM
Japanese white rabbit
  intraocular pressure reducing activity: significant intraocular pressure reducing activity
Thoracic aorta
  vasoconstriction inhibitory action: significant vasoconstriction inhibitory action

## Cc1cncc2cccc(O[C@H]3CC[C@H](N)CC3)c12.Cl [Example 140, Trans-4-[(4-methyl-5-isoquinolyl)oxy]cyclohexylamine hydrochloride]
[1]; [3]
  IC50: ≤ 40 µM
[1]; hydrochloride
  IC50: ≤ 20 µM
Japanese white rabbit
  intraocular pressure reducing activity: significant intraocular pressure reducing activity
Thoracic aorta
  vasoconstriction inhibitory action: significant vasoconstriction inhibitory action
[2]
  constriction of respiratory tract (airway resistance value): significantly improved the constriction of respiratory tract

## Cl.OCCN1CCC(Nc2cccc3cnccc23)CC1 [Example 144, 1-(2-Hydroxyethyl)-4-(5-isoquinolyl)aminopiperidine hydrochloride]
[1]; [3]
  IC50: ≤ 40 µM
Japanese white rabbit
  intraocular pressure reducing activity: significant intraocular pressure reducing activity
[2]
  constriction of respiratory tract (airway resistance value): significantly improved the constriction of respiratory tract

## Cl.OCCCN1CCC(Nc2cccc3cnccc23)CC1 [Example 145, 1-(3-Hydroxypropyl)-4-(5-isoquinolyl)aminopiperidine hydrochloride]
[1]; [3]
  IC50: ≤ 40 µM
[1]; hydrochloride
  IC50: ≤ 20 µM
Japanese white rabbit
  intraocular pressure reducing activity: significant intraocular pressure reducing activity
Neutrophils
  IC50: ≤ 40 µM

## Cc1cncc2cccc(NC3CCN(CCO)CC3)c12.Cl [Example 146, 1-(2-Hydroxyethyl)-4-(4-methyl-5-isoquinolyl)aminopiperidine hydrochloride]
[1]; [3]
  IC50: ≤ 40 µM
[1]; hydrochloride
  IC50: ≤ 20 µM
Japanese white rabbit
  intraocular pressure reducing activity: significant intraocular pressure reducing activity
Thoracic aorta
  vasoconstriction inhibitory action: significant vasoconstriction inhibitory action
Neutrophils
  IC50: ≤ 40 µM
[2]
  constriction of respiratory tract (airway resistance value): significantly improved the constriction of respiratory tract
